Active and inactive are the calls of the source. The rule behind the calls is not given here.
Experiments:
HL-60 [1] = test: Cytotoxicity against human HL60 cells by MTT assay; assay type: functional, cell-based
U-937 [2] = test: Cytotoxicity against human U937 cells by MTT assay; assay type: functional, cell-based
K562 [3] = test: Cytotoxicity against human K562 cells by MTT assay; assay type: functional, cell-based
HeLa = test: Cytotoxicity against human HeLa cells by MTT assay; assay type: functional, cell-based
Ca-Ski = test: Cytotoxicity against human CaSki cells by MTT assay; assay type: functional, cell-based
[4] = Cytotoxicity against human Chang cells by MTT assay; assay type: cell-based
[5] = Cytotoxicity against human L-132 cells by MTT assay; assay type: cell-based; details: L132
[6] = Cytotoxicity against human IOSE-80PC cells by MTT assay; assay type: cell-based
HL-60 [7] = test: Induction of apoptosis in human HL60 cells assessed as early apoptotic cells at 10 uM by Annexin V staining; assay type: functional, cell-based; details: TDE = time-dependent effect
U-937 [8] = test: Induction of apoptosis in human U937 cells assessed as early apoptotic cells at 10 uM by Annexin V staining; assay type: functional, cell-based; details: TDE = time-dependent effect
K562 [9] = test: Induction of apoptosis in human K562 cells assessed as early apoptotic cells at 10 uM by Annexin V staining; assay type: functional, cell-based; details: TDE = time-dependent effect
HL-60 [10] = test: Induction of apoptosis in human HL60 cells assessed as intercucleosomal DNA fragmentation at 10 uM by […] staining by flow cytometry; assay type: functional, cell-based; details: TDE = time-dependent effect
U-937 [11] = test: Induction of apoptosis in human U937 cells assessed as intercucleosomal DNA fragmentation at 10 uM by […] staining by flow cytometry; assay type: functional, cell-based; details: TDE = time-dependent effect
K562 [12] = test: Induction of apoptosis in human K562 cells assessed as intercucleosomal DNA fragmentation at 10 uM by […] staining by flow cytometry; assay type: functional, cell-based; details: TDE = time-dependent effect
HL-60 [13] = test: Induction of apoptosis in human HL60 cells assessed as procaspase 8 cleavage at 10 uM after 36 hrs by Western blot analysis; assay type: functional, cell-based
HL-60 [14] = test: Induction of apoptosis in human HL60 cells assessed as procaspase 9 cleavage at 10 uM after 36 hrs by Western blot analysis; assay type: functional, cell-based
HL-60 [15] = test: Induction of apoptosis in human HL60 cells assessed as procaspase 3 cleavage at 10 uM after 36 hrs by Western blot analysis; assay type: functional, cell-based
HL-60 [16] = test: Induction of apoptosis in human HL60 cells assessed as PARP-1 at 10 uM after 36 hrs by Western blot analysis; assay type: functional, cell-based
HL-60 [17] = test: Induction of apoptosis in human HL60 cells assessed as loss of mitochondrial membrane potential at 50 uM after 24 hrs by DiOC6 staining; assay type: functional, cell-based
HL-60 [18] = test: Induction of apoptosis in human HL60 cells assessed as Bax protein expression at 10 uM after 12 hrs by Western blot analysis; assay type: functional, cell-based
HL-60 [19] = test: Induction of apoptosis in human HL60 cells assessed as Bcl-2 protein expression at 10 uM after 12 hrs by Western blot analysis; assay type: functional, cell-based
HL-60 [20] = test: Induction of apoptosis in human HL60 cells assessed as cytochrome c release from mitochondria at 10 uM after 12 hrs by Western blot analysis; assay type: functional, cell-based
HL-60 [21] = test: Induction of apoptosis in human HL60 cells assessed as cytochrome c release from mitochondria at 10 uM after 24 hrs by Western blot analysis; assay type: functional, cell-based
HL-60 [22] = test: Induction of apoptosis in human HL60 cells assessed as Bcl-2 family expression at 10 uM by Western blot analysis; assay type: functional, cell-based; details: TDE = time-dependent effect
HL-60 [23] = test: Induction of apoptosis in human HL60 cells assessed as increase in ROS production; assay type: functional, cell-based; details: TDE = time-dependent effect
HL-60 [24] = test: Induction of apoptosis in human HL60 cells assessed as increase in ROS production in presence of 10 mM NAC; assay type: functional, cell-based
HL-60 [25] = test: Induction of apoptosis in NAC pretreated human HL60 cells assessed as increase in ROS production; assay type: functional, cell-based
HL-60 [26] = test: Induction of apoptosis in human HL60 cells assessed as increase in JNK phosphorylation level at 6 hrs; assay type: functional, cell-based
HL-60 [27] = test: Induction of apoptosis in human HL60 cells assessed as increase in JNK phosphorylation level at 12 hrs; assay type: functional, cell-based
HL-60 [28] = test: Induction of apoptosis in human HL60 cells in presence of 10 uM SP600125 JNK inhibitor; assay type: functional, cell-based
HL-60 [29] = test: Induction of apoptosis in NAC pretreated human HL60 cells assessed as increase in JNK phosphorylation level; assay type: functional, cell-based

CCc1cc2c(cc1-c1cc3ccc(OC)c(OC)c3c(=O)n1C)OCO2
IC50 (HL-60 [1]): 5.62 µM | IC50 (U-937 [2]): 33.2 µM | IC50 (K562 [3]): 38.1 µM | IC50 (HeLa): 42.2 µM | IC50 (Ca-Ski): 47.3 µM | IC50 [4]: 39.9 µM | IC50 [5]: 59.4 µM | IC50 [6]: 68 µM | Activity (HL-60 [7]): tde | Activity (U-937 [8]): tde | Activity (K562 [9]): tde | Activity (HL-60 [10]): tde | Activity (U-937 [11]): tde | Activity (K562 [12]): tde | Activity (HL-60 [13]): Active | Activity (HL-60 [14]): Active | Activity (HL-60 [15]): Active | Activity (HL-60 [16]): Active | Activity (HL-60 [17]): Active | Activity (HL-60 [18]): Active | Activity (HL-60 [19]): Active | Activity (HL-60 [20]): Active | Activity (HL-60 [21]): Active | Activity (HL-60 [22]): tde | Activity (HL-60 [23]): tde | Activity (HL-60 [24]): inactive | Activity (HL-60 [25]): inactive | Activity (HL-60 [26]): Active | Activity (HL-60 [27]): inactive | Activity (HL-60 [28]): Active | Activity (HL-60 [29]): inactive
